What is called MIC is the lowest concentration that inhibits growth of the organism. Read a high MIC as weaker potency. The term clearance denotes a measure of how efficiently the substance is removed, as volume per time. One may read the half-life as the time needed for the level to fall by half in the phase considered. High values mean slow loss, low ones fast loss.

These results are taken from patent US10654852B2, “Antibiotics and methods of using same” (THE BROAD INSTITUTE, INC., priority 2016, dated 2020).

In data set [1] the test system is Enterobacter cloacae ATCC-222. The experiment in a line: MIC (50% NHS). The settings on record: ATCC222; Enterobacter cloacae ATCC-222, 50% NHS. The class given is cell-based.
Data set [2] has as its system Citrobacter werkmanii Brenner ATCC-51114. Briefly: MIC (50% NHS). In kind it is cell-based. The settings on record: ATCC51114; Citrobacter werkmanii Brenner ATCC-51114, 50% NHS.
Data set [3] concerns Escherichia coli ATCC 25922. The experiment in a line: Deep thigh infection model in neutropenic mice, CFU count. In kind it is in vivo. The settings on record: 24 h P.I.; for colony forming units (CFU) compared with ciprofloxacin: 12.5 mg/kg compound vs 2.5 mg/kg ciprofloxacin, four doses; for colony forming units (CFU) as compared to the control: neutropenic CD-1 mice, thigh, 12.5 mg/kg IV four doses (1, 3, 5, 7 h P.I.). On the procedure:
The in vivo activity to determine the CFU following administration of the test compounds was determined on a deep thigh infection caused by Escherichia coli ATCC 25922 in mice. The in vivo efficacy of various compounds was measured using a modified version of the deep-thigh infection model disclosed in Selbie, F R, et al., Br. J. Exp. Pathol. 33 (1952), 315-26 and Zuluaga, A F, et al., BMC Infect. Dis. 6 (2005) 55, each of which is hereby incorporated by reference. The efficacy was determined measuring the number of bacterial colony forming units (“CFU”) of mice injected with Escherichia coli […] on Day 0 following administration of the compounds.
Female CD-1 mice, aged 6-8-weeks, were purchased from local licensed supplier. The mice were allowed to acclimate for 3 days in the animal facility before experimentation began. The mice were then rendered neutropenic by intraperitoneal (“I.P.”) injection of 150 mg/kg cyclophosphamide on Day-4 (4 days prior to the injection of bacteria), and a maintaining dose of 100 mg/kg cyclophosphamide on Day-1 (1 day prior to the injection of bacteria). This regimen conditioned mice to neutropenia during the study. On the day of bacterial challenge (Day 0), Escherichia coli ATCC 29522 was injected into each mouse. Prior to injection, the bacterium was streaked out from −80° C. glycerol stock onto a tryptone soya agar (“TSA”) plate on Day-1. On the day of bacterial challenging (Day 0), single colonies on the agar plate were suspended in sterile saline and the final bacterial concentration was adjusted to approximately 1×10^6 CFU/ml based on turbidity readout of the bacterial solution from a Siemens MicroScan turbidity meter. The bacterial suspension was kept on ice temporarily prior to injection once the desired concentration was achieved.
On Day 0, 100 μl of bacterial suspension as prepared above was injected into the posterior quadriceps muscles of the right thigh. Antibiotic compositions comprising a tested compound in a vehicle were given to mice through tail vein injection at one hours, three hours, five hours and 7 hours post of infection (“P.I.”). The vehicle for each antibiotic composition is 5% (w/v) solutol HS15 in water. At 24 h P.I., all mice were euthanized. Infected thigh muscles for each tested mouse were excised and stored in ice-cold sterile saline for transfer to a Biosafety Level 2 (“BSL-2”) laboratory for subsequent CFU counting. Within one hour following sample collection, the muscles from mice tested with the same antibiotic composition were homogenized by a homogenizer (IKA T10 basic S25), serially diluted in sterile saline, and plated on TSA plates. The plates were incubated at 30° C. for approximately 18 h. The CFU were counted and calculated as CFU/mouse. The animal facility was AAALAC accredited, and the animal welfare in this experiment was in compliance of IACUC.
The number of colony forming units was independently measured in five different mice per composition administered. Each mouse was administered a mass of active compound per kg weight of the mouse four times a day. Mice were administered a composition without a test compound, compositions comprising 2.5 mg(ciprofloxacin)/kg, 12.5 mg(Compound 17)/kg, 12.5 mg(Compound 23)/kg, and 12.5 mg(Compound 24)/kg).

The nature of the next data set: in vivo. The arrangement: species or system mice. The note with it: mouse, iv, 10 mg/kg; for half-life: T1/2. On the procedure:
Compounds were tested in a pharmacokinetic (“PK”) study to determine the T1/2 of test compounds in mice. The PK study was performed at an approved contract research organization. Each test compound was dissolved in a vehicle to make a test antibiotic composition. The vehicle may be, for example, a water or a 5% solutol in saline solution Administration to each mouse is performed via intravenous (IV) cannulation of the tail vein. Blood is collected over K2-EDTA anticoagulant from the submandibular or sapheneous vein at predetermined time points. Following collection, the blood samples are stored at −70° C. until analysis by LC-MS and comparison to a standard calibration curve results in the T1/2 for each compound. The blood concentration of test compounds was measured at various times following 10 mg/kg (mouse) intravenous (IV) administration of each tested compound. […] The T1/2 for compound 17 was 34.2 hours, for compound 23 was 22.0 hours, and for compound 24 was 22.5 hours.

The test system of data set [4] is Escherichia coli CCUG-59353. Briefly: MIC (50% NHS). The class given is cell-based. The note with it: CCUG59353; Escherichia coli CCUG-59353, 50% NHS.
Data set [5] has as its system Pseudomonas aeruginosa ATCC-BAA-47 (PAO1). Briefly: MIC (50% NHS). The class given is cell-based.

Values after ≈ are worked out from the molar mass of the structure shown.

In the case of `CN1CC2CN(C(=O)Nc3cc(F)cc(F)c3)CC(C1)C2(O)c1ccc(-c2ccc(CN)cc2C#N)cc1` [Compound 23, (1R,5S,9r)-9-(4′-(aminomethyl)-2′-cyano-[1,1′-biphenyl]-4-yl)-N-(3,5-difluorophenyl)-9-hydroxy-7-methyl-3,7-diazabicyclo[3.3.1]nonane-3-carboxamide], the MIC is 0.5 µg/mL (≈ 0.966 µM) in data set [1], 4 µg/mL (≈ 7.73 µM) in data set [2], 2 µg/mL (≈ 3.86 µM) in data set [4] and 2 µg/mL (≈ 3.86 µM) in data set [5]. Also, in data set [3], the “colony forming units (CFU) compared with ciprofloxacin” value was “Comparable results to ciprofloxacin”. For the same compound, the “colony forming units (CFU) as compared to the control” value in data set [3] is listed as “decrease the amount of colony forming units”. Moreover, the clearance in “in vivo” is 9.78 mL/min/kg. This compound showed a half-life in the data set “in vivo” of 22 h.
With `CNCc1ccc(-c2ccc(C3(O)C4CN(C)CC3CN(C(=O)Nc3cc(F)cc(F)c3)C4)nc2)c(C#N)c1` [Compound 17, (1R,5S,9r)-9-(5-(2-cyano-4-((methylamino)methyl)phenyl)pyridin-2-yl)-N-(3,5-difluorophenyl)-9-hydroxy-7-methyl-3,7-diazabicyclo[3.3.1]nonane-3-carboxamide], the MIC in data set [1] came to 0.45 µg/mL (≈ 0.845 µM); in data set [2], 3.56 µg/mL (≈ 6.68 µM); in data set [4], 1.78 µg/mL (≈ 3.34 µM); in data set [5] it was 1.78 µg/mL (≈ 3.34 µM). Also, in data set [3], the “colony forming units (CFU) compared with ciprofloxacin” value is listed as “Comparable results to ciprofloxacin”. For the same compound, the “colony forming units (CFU) as compared to the control” value in data set [3] is on record as “decrease the amount of colony forming units”. Moreover, the T1/2 in the data set “in vivo” turned out to be 34.2 h. Further, in “in vivo”, the clearance was 8.86 mL/min/kg. Also, the half-life in the data set “in vivo” is 34 h.
As for `CN1CC2CN(C(=O)Nc3cc(F)cc(F)c3)CC(C1)C2(O)c1ccc(-c2ccc(CN)cc2C#N)cn1` [Compound 24, (1R,5S,9r)-9-(5-(4-(aminomethyl)-2-cyanophenyl)pyridin-2-yl)-N-(3,5-difluorophenyl)-9-hydroxy-7-methyl-3,7-diazabicyclo[3.3.1]nonane-3-carboxamide], the MIC was 0.5 µg/mL (≈ 0.964 µM) in data set [1], 4 µg/mL (≈ 7.71 µM) in data set [2], 4 µg/mL (≈ 7.71 µM) in data set [4] and 2 µg/mL (≈ 3.86 µM) in data set [5]. The “colony forming units (CFU) as compared to the control” value in data set [3] is recorded as “decrease the amount of colony forming units”. Further, the clearance in “in vivo” came out at 13.9 mL/min/kg. Also, the half-life in the data set “in vivo” was 22.5 h.
